{"source": "patent US20250281507A1", "about": "“METHODS OF TREATING NEPHROTIC SYNDROME” (The Research Institute at Nationwide Children's Hospital, priority 2021, published 2025)", "key": {"children with NS [1]": {"tested_on": "children with NS", "experiment": "Renal survival, renal function, remission and prednisone taper on pioglitazone", "type": "in vivo, human", "source_text": "In the following clinical studies, the efficacy and safety of adding pioglitazone to reduce proteinuria in children with NS was examined. All children with NS identified worldwide to have been treated with pioglitazone were included, with no patients excluded. Each patient had pioglitazone added to their other NS medications at the discretion of their treating pediatric nephrologist. All patient records were reviewed in a de-identified manner, with prior ethics committee approval at each institution. Data were analyzed based on defined time periods before and after the addition of pioglitazone. Patients were defined as having responded to pioglitazone (i.e., Responders) if their urine protein to creatinine ratio (UPCR, mg/mg) decreased from the period 0-1 month pre-pioglitazone to the period 0-1 month post-pioglitazone. Glomerular filtration rate estimation (eGFR) in patients <18 years was calculated using the revised Schwartz equation. In patients >18 years, eGFR was calculated as the mean of the revised Schwartz and CKD-EPI creatinine equations. Quantitative data, such as patient age, duration of NS, pioglitazone dosage, and outcomes of UPCR, TIS, and serum albumin, were summarized as means (standard errors of mean), while categorical data such as renal survival status were summarized as frequency (percent). Due to a small sample size, Responders and Non-responders were compared using Wilcoxon Rank Sum tests on quantitative variables and Fisher's exact tests on categorical variables. For both Responders and Non-responders, pre-pioglitazone to post-pioglitazone initiation changes in UPCR, TIS, and serum albumin levels were analyzed using Wilcoxon Signed Rank tests. Numbers of hospitalizations pre-pioglitazone and post-pioglitazone initiation were analyzed and compared using Poisson distributions. Statistical significance was assessed at both the 0.05 and 0.10 levels. All analyses were conducted using SPSS software ver. 26 (IBM, Armonk, NY, USA)."}, "children with NS [2]": {"tested_on": "children with NS", "experiment": "Total Immunosuppression Score (TIS) before and after addition of pioglitazone", "type": "in vivo, human", "parameters": "% TIS reduction (0-1 mo) / % TIS reduction (5-7 mo) / % TIS reduction (0-1 mo), Mean (SEM) / % TIS reduction (5-7 mo), Mean (SEM): concentration or dose not given beside the values", "method": "The reduction in overall immunosuppression can be quantified by comparing the “Total Immunosuppression Score” (TIS) prior to and after the addition of a TZD to the drug regimen (see FIG. 3 herein). The TIS is based on a combination of the number of immunosuppressive drugs being administered and the dose at which each drug is administered. The score for each drug is on a scale of 0 to 4, where: 0=no drug administered; 1=drug administered up to less than 25% of the standardized full dose; 2=drug administered between 25% and less than 50% of the standardized full dose; 3=drug administered between 50% and less than 75% of the standardized full dose; 4=drug administered between 75% and 100% of the standardized full dose. As an example, if five different immunosuppressive medicaments are co-administered to a subject each at their standardized full dose, the TIS=20.\nFor each patient, a Total Immunosuppression Score (TIS) (see Table 3) was calculated to quantitate overall immunosuppression. For each class of immunosuppressive drug administered during a given time period, a score of 0-4 was assigned based on the percentage of a full dose for each patient's body size (0=0%; 1=<25%; 2=≥25-<50%; 3=≥50-<75%: 4=≥75%).\nQuantitative data, such as patient age, duration of NS, pioglitazone dosage, and outcomes of UPCR, TIS, and serum albumin, were summarized as means (standard errors of mean), while categorical data such as renal survival status were summarized as frequency (percent). Due to a small sample size, Responders and Non-responders were compared using Wilcoxon Rank Sum tests on quantitative variables and Fisher's exact tests on categorical variables. For both Responders and Non-responders, pre-pioglitazone to post-pioglitazone initiation changes in UPCR, TIS, and serum albumin levels were analyzed using Wilcoxon Signed Rank tests. Numbers of hospitalizations pre-pioglitazone and post-pioglitazone initiation were analyzed and compared using Poisson distributions. Statistical significance was assessed at both the 0.05 and 0.10 levels. All analyses were conducted using SPSS software ver. 26 (IBM, Armonk, NY, USA)."}, "[3]": {"details": "Patient 1 (Responder), pre-PIO 13"}, "[4]": {"details": "Patient 1 (Responder), vs 0-1 mo pre-PIO"}, "[5]": {"details": "Patient 2 (Responder), pre-PIO 12"}, "[6]": {"details": "Patient 2 (Responder), vs 0-1 mo pre-PIO"}, "[7]": {"details": "Patient 3 (Responder), pre-PIO 0"}, "[8]": {"details": "Patient 3 (Responder), vs 0-1 mo pre-PIO (TIS 0)"}, "[9]": {"details": "Patient 5 (Non-responder), pre-PIO 4"}, "[10]": {"details": "Patient 5 (Non-responder), vs 0-1 mo pre-PIO"}, "[11]": {"details": "Patient 6 (Responder), pre-PIO 2"}, "[12]": {"details": "Patient 7 (Non-responder), pre-PIO 3"}, "[13]": {"details": "Patient 7 (Non-responder), vs 0-1 mo pre-PIO"}, "[14]": {"details": "Patient 8 (Responder), pre-PIO 4"}, "[15]": {"details": "Patient 8 (Responder), vs 0-1 mo pre-PIO"}, "[16]": {"details": "mean of 5 Responders, pre-PIO 6.20"}}, "note": "Where “and” joins values, the source holds several entries; their conditions need not be identical. Equal entries are not always repeated."}
{"smiles": "CCc1ccc(CCOc2ccc(CC3SC(=O)NC3=O)cc2)nc1", "note": "(centres unmarked) [pioglitazone]", "values": [{"measurement": "Renal Survival, % survival", "setting": "children with NS [1]; 3 Non-responders", "result": 33.3, "unit": "%"}, {"measurement": "Renal Survival, % survival", "setting": "children with NS [1]; 5 Responders", "result": 100, "unit": "%"}, {"measurement": "Renal Survival", "setting": "children with NS [1]; Patient 1 (Responder)", "result": "yes"}, {"measurement": "renal function", "setting": "children with NS [1]; Patient 1, during pioglitazone treatment", "result": "maintained normal renal function"}, {"measurement": "Renal Survival", "setting": "children with NS [1]; Patient 2 (Responder)", "result": "yes"}, {"measurement": "renal function", "setting": "children with NS [1]; Patient 2, during pioglitazone treatment", "result": "maintained normal renal function"}, {"measurement": "PRED dose after taper", "setting": "children with NS [1]; Patient 2, orally QD, from 30 mg/d", "result": 5, "unit": "mg"}, {"measurement": "remission", "setting": "children with NS [1]; Patient 2, pioglitazone 15 mg orally QD for 16 weeks", "result": "achieved full remission"}, {"measurement": "Renal Survival", "setting": "children with NS [1]; Patient 3 (Responder)", "result": "yes"}, {"measurement": "Prednisone dose after decrease", "setting": "children with NS [1]; Patient 3, from 40 mg/d", "result": 20, "unit": "mg/day"}, {"measurement": "Renal Survival", "setting": "children with NS [1]; Patient 4 (Non-responder), cFSGS, AKI at presentation", "result": "no"}, {"measurement": "renal function", "setting": "children with NS [1]; Patient 4, during pioglitazone treatment", "result": "renal function continued to worsen"}, {"measurement": "Renal Survival", "setting": "children with NS [1]; Patient 5 (Non-responder)", "result": "yes"}, {"measurement": "NS relapses", "setting": "children with NS [1]; Patient 5, on pioglitazone for 2.5 years", "result": "continued to have NS relapses"}, {"measurement": "Renal Survival", "setting": "children with NS [1]; Patient 6 (Responder)", "result": "yes"}, {"measurement": "serum creatinine", "setting": "children with NS [1]; Patient 6, on MMF and pioglitazone", "result": 0.90, "unit": "mg/dL"}, {"measurement": "Renal Survival", "setting": "children with NS [1]; Patient 7 (Non-responder)", "result": "no"}, {"measurement": "renal function", "setting": "children with NS [1]; Patient 7, pre-pioglitazone eGFR 44 ml/min/1.73 m^2", "result": "remained stable during the 6 months of pioglitazone treatment"}, {"measurement": "Renal Survival", "setting": "children with NS [1]; Patient 8 (Responder)", "result": "yes"}, {"measurement": "renal function", "setting": "children with NS [1]; Patient 8, during pioglitazone treatment", "result": "renal function remained normal"}, {"measurement": "remission", "setting": "children with NS [1]; Patient 8, following 5-7 months", "result": "remained in complete remission"}, {"measurement": "PRED dose after taper", "setting": "children with NS [1]; Patient 8, from 25 mg/d", "result": 10, "unit": "mg/day"}, {"measurement": "mean TIS", "setting": "children with NS [2]; Non-responders, before and after pioglitazone treatment", "result": "approximately 3.5"}, {"measurement": "Post-PIO TIS (0-1 mo)", "setting": "children with NS [2]; [3]", "result": 11}, {"measurement": "Post-PIO TIS (5-7 mo)", "setting": "children with NS [2]; [3]", "result": 5}, {"measurement": "% TIS reduction (0-1 mo)", "setting": "children with NS [2]; [4]", "result": "15% and 15.4%"}, {"measurement": "% TIS reduction (5-7 mo)", "setting": "children with NS [2]; [4]", "result": "62% and 61.5%"}, {"measurement": "Post-PIO TIS (0-1 mo)", "setting": "children with NS [2]; [5]", "result": 12}, {"measurement": "Post-PIO TIS (5-7 mo)", "setting": "children with NS [2]; [5]", "result": 8}, {"measurement": "% TIS reduction (0-1 mo)", "setting": "children with NS [2]; [6]", "result": 0, "unit": "%"}, {"measurement": "% TIS reduction (5-7 mo)", "setting": "children with NS [2]; [6]", "result": "33% and 33.3%"}, {"measurement": "Post-PIO TIS (0-1 mo)", "setting": "children with NS [2]; [7]", "result": 2}, {"measurement": "Post-PIO TIS (5-7 mo)", "setting": "children with NS [2]; [7]", "result": 1}, {"measurement": "% TIS reduction (0-1 mo)", "setting": "children with NS [2]; [8]", "result": "−∞"}, {"measurement": "% TIS reduction (5-7 mo)", "setting": "children with NS [2]; [8]", "result": "−∞"}, {"measurement": "TIS increase", "setting": "children with NS [2]; Patient 4 (Non-responder), over the next 1 month", "result": 133, "unit": "%"}, {"measurement": "Post-PIO TIS (0-1 mo)", "setting": "children with NS [2]; Patient 4 (Non-responder), pre-PIO 3", "result": 7}, {"measurement": "% TIS reduction (0-1 mo)", "setting": "children with NS [2]; Patient 4 (Non-responder), vs 0-1 mo pre-PIO", "result": "−133", "unit": "%"}, {"measurement": "Post-PIO TIS (0-1 mo)", "setting": "children with NS [2]; [9]", "result": 4}, {"measurement": "Post-PIO TIS (5-7 mo)", "setting": "children with NS [2]; [9]", "result": 4}, {"measurement": "% TIS reduction (0-1 mo)", "setting": "children with NS [2]; [10]", "result": 0.00, "unit": "%"}, {"measurement": "% TIS reduction (5-7 mo)", "setting": "children with NS [2]; [10]", "result": 0.00, "unit": "%"}, {"measurement": "Post-PIO TIS (0-1 mo)", "setting": "children with NS [2]; [11]", "result": 2}, {"measurement": "Post-PIO TIS (5-7 mo)", "setting": "children with NS [2]; [11]", "result": 2}, {"measurement": "% TIS reduction (5-7 mo)", "setting": "children with NS [2]; Patient 6 (Responder), vs 0-1 mo pre-PIO", "result": 0.00, "unit": "%"}, {"measurement": "Post-PIO TIS (0-1 mo)", "setting": "children with NS [2]; [12]", "result": 3}, {"measurement": "Post-PIO TIS (5-7 mo)", "setting": "children with NS [2]; [12]", "result": 3}, {"measurement": "% TIS reduction (0-1 mo)", "setting": "children with NS [2]; [13]", "result": 0.00, "unit": "%"}, {"measurement": "% TIS reduction (5-7 mo)", "setting": "children with NS [2]; [13]", "result": 0.00, "unit": "%"}, {"measurement": "Post-PIO TIS (0-1 mo)", "setting": "children with NS [2]; [14]", "result": 3}, {"measurement": "Post-PIO TIS (5-7 mo)", "setting": "children with NS [2]; [14]", "result": 2}, {"measurement": "% TIS reduction (0-1 mo)", "setting": "children with NS [2]; [15]", "result": 25, "unit": "%"}, {"measurement": "% TIS reduction (5-7 mo)", "setting": "children with NS [2]; [15]", "result": 50, "unit": "%"}, {"measurement": "decrease in overall exposure to immunosuppressive medications (mean TIS)", "setting": "children with NS [2]; Responders, mean TIS 6.2 at 0-1 month pre- to 3.6 at 5-7 months post-pioglitazone", "result": 42, "unit": "%"}, {"measurement": "% TIS reduction (0-1 mo), Mean (SEM)", "setting": "children with NS [2]; mean of 5 Responders", "result": "−∞"}, {"measurement": "% TIS reduction (5-7 mo), Mean (SEM)", "setting": "children with NS [2]; mean of 5 Responders", "result": "−∞"}, {"measurement": "Post-PIO TIS (0-1 mo), Mean (SEM)", "setting": "children with NS [2]; [16]", "result": 6.00}, {"measurement": "Post-PIO TIS (5-7 mo), Mean (SEM)", "setting": "children with NS [2]; [16]", "result": 3.6}, {"measurement": "% TIS reduction (0-1 mo), Mean (SEM)", "setting": "children with NS [2]; mean of Non-responders", "result": "−44.4", "unit": "%"}, {"measurement": "Post-PIO TIS (5-7 mo), Mean (SEM)", "setting": "children with NS [2]; mean of Non-responders (Patient 4 ESRD)", "result": 3.50}, {"measurement": "% TIS reduction (5-7 mo), Mean (SEM)", "setting": "children with NS [2]; mean of Non-responders (Patient 4 NA)", "result": 0.00, "unit": "%"}, {"measurement": "Post-PIO TIS (0-1 mo), Mean (SEM)", "setting": "children with NS [2]; mean of Non-responders, pre-PIO 3.33", "result": 4.67}]}
